The values that follow come from patent publication US7919508B2, “3-piperidinylisochroman-5-ols as dopamine agonists” (Aventis Pharmaceuticals Inc., priority 2004, dated 2011).

The target of assay [1] is T1, human dopamine D1 receptor (Homo sapiens, UniProt P21728).
T1 construct: A 1.4 Kb Hind III to Xho I fragment was subcloned into the vector pMMLV; expressed in transfected cells; host or cells: CHO cells, clone CHO-D1M#9 (plasmid pHD1MMLV), membranes
The assay is described as follows: [3H]-SCH-23390 binding to cloned human dopamine D1 receptors (CHO cell membranes). Conditions: competitive binding, [3H]-SCH-23390, cloned human D1 in CHO membranes; read-out: D1 affinity Ki. The method, then:
[^3H]-SCH-23390 Binding to Cloned Human Dopamine D1 Receptors
Determination of relative binding affinity of potential neuropsychiatric and other agents for the human dopamine D1 receptor.
The human D, cDNA was obtained from the laboratory of Dr. Marc Caron in the vector pCMV5. A 1.4 Kb Hind III to Xho I fragment was subcloned into the vector pMMLV. The plasmid pHD1MMLV was then sequenced completely. Transient transfections in COS-7 cells were performed and D1 specific binding was obtained. The construct pHD1MMLV was then transfected stably into CHO cells and 72 G418-resistant clones were isolated. High expressors were identified by mRNA dot blot analysis. Six high expressors were further characterized by binding and then clone CHO-D1M#9 was chosen for detailed pharmacological characterization. This clone was then grown in suspension culture for the purpose of obtaining enough protein to accommodate several months of screening.
B. Cell Culture Conditions
• 1. […] Cells are transferred to suspension culture when at least […] are available (this allows for 300,000 cells/ml in a 50 ml spinner flask; this is the ideal suspension density). Cells are removed from flasks with trypsin, spun down at 1000×G and resuspended the pellet in fresh medium: • 50% CHO-SFM-II+50% Ham's F12 w/10% FBS (final FBS conc. 5%)+400 μg/ml G418+1% P/S. • 3. After the transfer to suspension culture, growth is monitored and cell viability is assessed using trypan blue exclusion. Total and viable cell count on 5 sectors of the hemocytometer are recorded. When the viable cell density reaches 600,000 cell/ml, the volume is doubled. • 4. After 1 week of growth in the 50/50 medium, the cells are spun down and transferred to a new spinner flask and replaced with 75% CHO-SFM II/25% Ham's F12+10% FBS plus the pen-strep and G418. Thereafter every 3 days, the medium is replaced with new medium containing a decreasing amount of FBS as follows:
• 5. The final maintenance culturing medium is made up as follows: • A stock mixture of 10 ml of pen-strep, 0.5 ml of […] (active; final concentration: 200 μg/ml) G418 and 1 ml of FBS are mixed and filtered and refrigerated. A volume (11.5 ml) of this mixture is added to a freshly opened 1 L bottle of CHO-SFM II. C. Membrane Preparation
Cells are harvested into 250 ml centrifuge tubes and spun down at 1200×G. The medium is removed and 100 ml PBS (phosphate-buffered saline) is added to each centrifuge tube; cells are resuspended and spun down again. The PBS is removed and the final pellet is homogenized with a polytron on ice at a medium setting.
The membrane suspension is diluted in water and samples (10, 50 and 100 μl; q.s. to 100 μl with water) are diluted with 100 μl of 1% SDS. The sample is vortexed and allowed to stand for 5 min. Two aliquots each of the solubilized protein sample are placed in clean 13×100 test tubes for the assay. Instructions are followed as outlined in the BioRad DC protein determination kit (Catalog # 500-0112). OD readings that fall between 0.1-0.5 (mid-range of standard curve) should typically be used for calculations. Protein concentrations are calculated from a standard curve using bovine serum albumin as standard by linear regression and interpolation.
Following cell harvesting and protein determination, the homogenate is diluted with 10% DMSO to the correct volume based on Bmax and relative size of individual experiments to be conducted. The concentrated protein is stored in cryogenic vials in aliquots of 1-1.5 ml. Samples may be stored in −80° C. freezer or in liquid nitrogen.

Assay [2] has as its target human dopamine D2Long (D2L) receptors (Homo sapiens, UniProt P14416).
Experimental: [N-Methyl-^3H]Spiroperidol Binding to Cloned Human Dopamine D2Long Receptors
This assay measures the in vitro activity of drugs on cloned human dopamine D2Long (D2L) receptors and predicts the direct dopamine-displacing properties of neuropsychiatric, cardiovascular and renal agents at human dopamine D2 receptors.
Cells were maintained in Ham's F12+10% Fetal Bovine Serum+Penicillin/Streptomycin (100 U/ml/100 μg/ml)+G418 (400 μg/ml) medium and were split using Trypsin-EDTA (1 ml/plate, room temperature for ˜2 min. or until cells have lifted off plates). • 2. […] Plates are incubated at 37° C.+5% CO2 for ˜3 days or until cells were confluent.
Cells are harvested by mechanical scraping, washed using PBS collected in 250 ml Corning polypropylene centrifuge tubes, spun down and resuspended in dH2O (final volume per harvest approximately 60 ml). Protein determination is made according to the method of Lowry (Biorad DC Assay Kit). Following the determination of the protein concentration, the protein is diluted into distilled water with 10% DMSO to the appropriate volume based on expression levels (Bmax). The concentrated protein is aliquoted into 1.5 ml screw top eppendorf tubes and placed into a −80° C. freezer.
Assay Requirement: 1 cryovial per two 96 well plates
0.5M Tris Wash Buffer, pH 7.7 • a) 44.4 g Tris HCl • 26.5 g Tris Base • q.s. to 1 Liter (0.5 M Tris buffer, pH 7.7 at 37° C.) • b) make a 1:10 dilution in distilled H2O (0.05 M. Tris buffer, pH 7.7) • 2. Tris Buffer containing physiological salts • a) Stock buffer • NaCl 7.014 g • KCl 0.372 g • CaCl2 0.222 g • MgCl2 0.204 g • q.s. To 100 ml with 0.5 M. Tris Buffer • b) Dilute 1:10 in distilled H2O • This yields 0.05 M. Tris HCl, pH 7.7, containing NaCl (120 mM), KCl (5 mM), CaCl2 (2 mM) and MgCl2 (1 mM) • Optional: add 0.1% ascorbic acid and check pH (in assays with compounds that may oxidize. • c) 1.0% polyethyleneimine stock in 0.5M Tris (reagent 1.a) • Dilute 1:10 in distilled H2O Binding Assay • 750 μl Tissue • 150 μl [^3H]NMSP • 100 μl vehicle (for total binding) or 30 μM (−)
eticlopride (for nonspecific binding) or appropriate drug concentration.
The 96-Well Packard Unifilters GF/B are incubated for >1 h at 25° C. in 0.1% polyethylenimine. The cold tissue is added last and mixed on a orbital shaker for a few seconds and is then incubated at 37° C. for 30 min in a shaking water bath. The assay is stopped by rapid filtration through Packard Unifilter plates. The filter membranes are then washed with 15 ml of ice-cold 0.05 M Tris buffer. The filters are then dried (˜15 min. under a heat lamp or incubated for 15 min. in a 60° C. oven) and a bottom seal is applied. Then 40 μl of Packard Microscint 20 scintillation cocktail are added and a permanent topseal (Type P) is applied and heat sealed. The plates are placed in a Packard Topcount.
Specific binding is defined as the difference between total binding and the binding in the presence of 3 μM S-(−)-eticlopride. Total binding is approximately 10% of the total added ligand. […] The percent inhibition at each drug concentration is the mean of duplicate determinations.

Counter-ions that a name gives are not always drawn.

Chain of human dopamine D2Long (D2L) receptors (P14416 whole entry): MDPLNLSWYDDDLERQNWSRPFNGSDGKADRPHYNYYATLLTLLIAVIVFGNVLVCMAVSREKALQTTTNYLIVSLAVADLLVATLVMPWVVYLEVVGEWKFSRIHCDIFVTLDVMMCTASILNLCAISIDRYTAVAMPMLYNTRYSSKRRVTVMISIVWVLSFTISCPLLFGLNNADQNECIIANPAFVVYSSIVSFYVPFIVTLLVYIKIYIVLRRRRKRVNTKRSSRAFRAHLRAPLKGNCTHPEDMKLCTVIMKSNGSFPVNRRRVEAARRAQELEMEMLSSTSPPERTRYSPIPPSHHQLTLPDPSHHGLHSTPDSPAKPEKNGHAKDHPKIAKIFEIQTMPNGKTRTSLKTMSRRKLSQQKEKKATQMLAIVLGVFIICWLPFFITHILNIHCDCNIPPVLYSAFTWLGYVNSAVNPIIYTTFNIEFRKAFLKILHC
T1 sequence (P21728 whole entry, the tested form may be a part): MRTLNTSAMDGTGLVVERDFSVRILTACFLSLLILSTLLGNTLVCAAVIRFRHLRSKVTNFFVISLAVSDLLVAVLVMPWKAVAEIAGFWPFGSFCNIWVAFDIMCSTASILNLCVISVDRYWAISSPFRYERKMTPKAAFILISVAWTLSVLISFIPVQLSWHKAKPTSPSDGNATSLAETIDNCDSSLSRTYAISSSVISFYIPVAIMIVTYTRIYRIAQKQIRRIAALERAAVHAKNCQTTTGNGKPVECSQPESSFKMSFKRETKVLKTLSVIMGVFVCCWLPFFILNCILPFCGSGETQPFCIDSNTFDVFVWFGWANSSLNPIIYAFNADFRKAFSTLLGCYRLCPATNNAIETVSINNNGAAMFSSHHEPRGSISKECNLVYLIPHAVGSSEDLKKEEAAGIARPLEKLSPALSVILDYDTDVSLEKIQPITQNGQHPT

As for `Cc1ccc2c(c1O)C[C@@H](C1CCN(S(=O)(=O)N3CCC(Cc4ccccc4)CC3)CC1)O[C@H]2CN` [Example 166, (1R,3S)-1-Aminomethyl-3-[1-(4-benzyl-piperidine-1-sulfonyl)-piperidin-4-yl]-6-methyl-isochroman-5-ol hydrochloride], the Ki in assay [1] is 207 nM; in assay [2], 246 nM. Turning to `Cc1ccc2c(c1O)C[C@@H](C1CCN(S(=O)(=O)C[C@@]34CC[C@@H](CC3=O)C4(C)C)CC1)O[C@H]2CN` [Example 162, 1(R)-[4-((1R,3S)-1-Aminomethyl-5-hydroxy-6-methyl-isochroman-3-yl)-piperidine-1-sulfonylmethyl]-7,7-dimethyl-bicyclo[2.2.1]heptan-2-one hydrochloride], the Ki in assay [1] was 382 nM; in assay [2] it was at least 100000 nM. Regarding `Cc1ccc2c(c1O)C[C@@H](C1CCN(Cc3ccc(F)cc3F)CC1)O[C@H]2CN` [Example 50, (1R,3S)-1-Aminomethyl-3-[1-(2,4-difluoro-benzyl)-piperidin-4-yl]-6-methyl-isochroman-5-ol dihydrochloride], the values for the Ki in assay [1] and in assay [2] were 47.3 nM and 367 nM, respectively. The matching figures for `CNC[C@@H]1O[C@H](C2CCN(CC3CCCCC3)CC2)Cc2c1ccc(C)c2O` [Example 96, (1R,3S)-3-(1-Cyclohexylmethyl-piperidin-4-yl)-6-methyl-1-methylaminomethyl-isochroman-5-ol dihydrochloride]: 265 nM and 552 nM.

As to `Cc1ccc2c(c1O)C[C@@H](C1CCN(S(=O)(=O)c3ccc(-c4ccccc4)cc3)CC1)O[C@H]2CN` [Example 152, (1R,3S)-1-Aminomethyl-3-[1-(biphenyl-4-sulfonyl)-piperidin-4-yl]-6-methyl-isochroman-5-ol hydrochloride], the Ki is 169 nM in assay [1] and at least 100000 nM in assay [2].

As for `CNC[C@@H]1O[C@H](C2CCN(Cc3ccccc3)CC2)Cc2c1ccc(C)c2O` [Example 171, (1R,3S)-3-(1-Benzyl-piperidin-4-yl)-6-methyl-1-methylaminomethyl-isochroman-5-ol], the figures for the Ki in assay [1] and in assay [2] were 98 nM and 317 nM, respectively.

As for `C=CCN(C)C[C@@H]1O[C@H](C2CCN(Cc3ccccc3)CC2)Cc2c1ccc(C)c2O` [Example 176, (1R,3S)-1-[(Allyl-methyl-amino)-methyl]-3-(1-benzyl-piperidin-4-yl)-6-methyl-isochroman-5-ol], the results for the inhibition constant Ki in assay [1] and in assay [2] were 1700 nM and 124 nM, respectively. On the same counts, the results for `Cc1ccc2c(c1O)C[C@@H](C1CCN(C(=O)N3c4ccccc4Sc4ccccc43)CC1)O[C@H]2CN` [Example 137, [4-((1R,3S)-1-Aminomethyl-5-hydroxy-6-methyl-isochroman-3-yl)-piperidin-1-yl]-phenothiazin-10-yl-methanone hydrochloride] are 412 nM and 163 nM. Regarding `Cc1ccc2c(c1O)C[C@@H](C1CCN(C(=O)N3CCOCC3)CC1)O[C@H]2CN` [Example 134, [4-((1R,3S)-1-Aminomethyl-5-hydroxy-6-methyl-isochroman-3-yl)-piperidin-1-yl]-morpholin-4-yl-methanone hydrochloride], the Ki was 240 nM in assay [1] and at least 100000 nM in assay [2]. For `Cc1ccc2c(c1O)C[C@@H](C1CCN(Cc3ccc(F)c(C(F)(F)F)c3)CC1)O[C@H]2CN` [Example 83, (1R,3S)-1-Aminomethyl-3-[1-(4-fluoro-3-trifluoromethyl-benzyl)-piperidin-4-yl]-6-methyl-isochroman-5-ol dihydrochloride], the Ki is 15.9 nM in assay [1] and 611 nM in assay [2]. In the case of `Cc1ccc2c(c1O)C[C@@H](C1CCN(C(=O)N(C(C)C)C(C)C)CC1)O[C@H]2CN` [Example 133, 4-((1R,3S)-1-Aminomethyl-5-hydroxy-6-methyl-isochroman-3-yl)-piperidine-1-carboxylic acid diisopropylamide hydrochloride], the inhibitory constant (Ki) was 241 nM in assay [1] and at least 100000 nM in assay [2]. On the same counts, the results for `Cc1ccc2c(c1O)C[C@@H](C1CCN(Cc3cccc(C(F)(F)F)c3F)CC1)O[C@H]2CN` [Example 80, (1R,3S)-1-Aminomethyl-3-[1-(2-fluoro-3-trifluoromethyl-benzyl)-piperidin-4-yl]-6-methyl-isochroman-5-ol dihydrochloride] are 48.7 nM and 565 nM. `Cc1ccc2c(c1O)C[C@@H](C1CCN(S(=O)(=O)c3ccc(Cl)cc3)CC1)O[C@H]2CN` [Example 148, (1R,3S)-1-Aminomethyl-3-[1-(4-chloro-benzenesulfonyl)-piperidin-4-yl]-6-methyl-isochroman-5-ol hydrochloride]: the Ki in assay [1] is 183 nM; in assay [2] it was at least 100000 nM.

For `Cc1ccc2c(c1O)C[C@@H](C1CCN(Cc3cc(F)cc(C(F)(F)F)c3)CC1)O[C@H]2CN` [Example 84, (1R,3S)-1-Aminomethyl-3-[1-(3-fluoro-5-trifluoromethyl-benzyl)-piperidin-4-yl]-6-methyl-isochroman-5-ol dihydrochloride], the inhibition constant (Ki) stood at 33 nM in assay [1] and 450 nM in assay [2]. In the case of `Cc1ccc2c(c1O)C[C@@H](C1CCN(C(C)c3ccccc3)CC1)O[C@H]2CN` (stereo partly drawn) [Example 51, (1R,3S)-1-Aminomethyl-6-methyl-3-[1-(1-phenyl-ethyl)-piperidin-4-yl]-isochroman-5-ol dihydrochloride], in assay [1], the inhibitory constant (Ki) stood at 156 nM.

With `Cc1ccccc1CN1CCC([C@@H]2Cc3c(ccc(C)c3O)[C@H](CN)O2)CC1` [Example 64, (1R,3S)-1-Aminomethyl-6-methyl-3-[1-(2-methyl-benzyl)-piperidin-4-yl]-isochroman-5-ol dihydrochloride], the Ki worked out at 198 nM in assay [1] and 576 nM in assay [2]. With `CCCN(C)C[C@@H]1O[C@H](C2CCN(Cc3ccc(C(F)(F)F)cc3)CC2)Cc2c1ccc(C)c2O` [Example 184, (1R,3S)-6-Methyl-1-[(methyl-propyl-amino)-methyl]-3-[1-(4-trifluoromethyl-benzyl)-piperidin-4-yl]-isochroman-5-ol], the Ki in assay [1] was 110 nM. `Cc1ccc2c(c1O)C[C@@H](C1CCN(C(C(=O)O)c3ccccc3)CC1)O[C@H]2CN` (stereo partly drawn) [Example 195, [4-((1R,3S)-1-Aminomethyl-5-hydroxy-6-methyl-isochroman-3-yl)-piperidin-1-yl]-phenylacetic acid dihydrobromide]: the Ki in assay [1] was 1700 nM. Consider `C=CCN(CC=C)C[C@@H]1O[C@H](C2CCN(Cc3ccc(C(F)(F)F)cc3)CC2)Cc2c1ccc(C)c2O` [Example 185, (1R,3S)-1-Diallylaminomethyl-6-methyl-3-[1-(4-trifluoromethyl-benzyl)-piperidin-4-yl]-isochroman-5-ol], for which the Ki in assay [1] is 3100 nM.

In the case of `C=CCN(CC=C)C[C@@H]1O[C@H](C2CCN(Cc3ccccc3)CC2)Cc2c1ccc(C)c2O` [Example 187, (1R,3S)-3-(1-Benzyl-piperidin-4-yl)-1-diallylaminomethyl-6-methyl-isochroman-5-ol], in assay [1], the Ki worked out at 2640 nM. With `Cc1ccc2c(c1O)C[C@@H](C1CCN(C(=O)N(c3ccccc3)c3ccccc3)CC1)O[C@H]2CN` [Example 130, 4-((1R,3S)-1-Aminomethyl-5-hydroxy-6-methyl-isochroman-3-yl)-piperidine-1-carboxylic acid diphenylamide hydrochloride], the Ki in assay [1] was 156 nM. On the same count and under the same terms, the figure for `C=CCNC[C@@H]1O[C@H](C2CCN(Cc3ccccc3)CC2)Cc2c1ccc(C)c2O` [Example 186, (1R,3S)-1-Allylaminomethyl-3-(1-benzyl-piperidin-4-yl)-6-methyl-isochroman-5-ol] is 1910 nM.

What is called Ki is a dissociation constant, usually derived from enzyme kinetics or from competition with a known ligand.
